Where no end group is shown, it is not given here.
system: PAR; test: PAR overlay assay of full length AIF and mutants; format: binding; settings: His-tagged proteins, purified PAR, normalized to WT-AIF, result in words
Description: The following experiment was performed to confirm whether AIF in fact binds to PAR. Applicants performed 3 trials of an overlay assay on recombinant AIF with affinity-purified biotin-labeled PAR. Histone H3, which binds to PAR with high affinity, was included as a positive control and bovine serum albumin (“BSA”) was included as a negative control, as described by P. Chang et al. (Nat Cell Bio, 2005). FIG. 1B depicts three photos side by side for gels representative of all trials for these overlay assays. […] Thus, Applicants took the results of these two tests as confirming that AIF binds to PAR in vitro.
To further study these potential AIF PBMs, Applicants performed the following experiment to examine the effect of mutating AIFm amino acids 222-244, 441-463, and/or 567-592 to poly-alanine on the ability of AIF to bind PAR. FIG. 6 comprises black and white photographs of representative gels from an overlay assay of His-tagged WT-AIF, AIFm222-244, AIFm441-463, AIFm567-592, AIFΔ567-592 (i.e., a mutant lacking AAs 567-592), and AIF(K254A, R264A) (i.e., mutating K to A at 254 and R to A at 264) mutants with ^32P-labeled automodified PARP-1 (equivalent to 100 nM of PAR), purified ^32P-labeled PAR (100 nM), or purified ^32P-labeled PAR with either a 100-fold excess of DNA or cold PAR. […] The same can be assumed to corresponding sequences for other species, such as those identified in FIG. 4.
Additionally, to exclude the possibility that PAR polymer is binding to AIF through its DNA-binding domain, PAR polymer binding was assessed against the full length AIF DNA-binding mutant AIFK254A;R264A as described by H Cande et al. (Nat Struct Biol, 2002).
Finally, Human AIF (“AIFH”) is known to bind to DNA through a groove between the FAD-binding domain (“D1”) and C-terminal domain (“D3”). A mutant form of AIFH in which lysine 255 is substituted with alanine and arginine 265 is substituted with alanine (AIFK255A;R265A) completely lacks DNA binding. To investigate the possible contribution of the AIF DNA-binding domain to PAR binding, Applicants assessed PAR binding to AIFm mutated in the same way (AIFK254A;R264A). […] Thus, Applicants concluded that the AIF PAR-binding site is separable from its DNA-binding site, meaning that such binding could be inhibited by genetically modifying AIF without impacting the natural DNA binding capabilities of AIF or potentially by otherwise inhibiting the binding action of the PBMs.

PAR binding	Molecule
nearly abolished PAR-binding	triple leucine mutant: mouse AIF mutant R588L;K589L;K592L (LRDKVVVGIVLWNVFNRMPIALLIIL; mouse)

same assay, conditions: radioactive signal normalized to WT-AIF

Molecule	reduced PAR binding
AIFK589L;K592L: His-tagged mouse AIF double leucine mutant, SEQ. ID NO. 21 (LRDKVVVGIVLWNVFNRMPIARLIIL; also: His tag)	about 85%
AIFR588L;K589L: His-tagged mouse AIF double leucine mutant, SEQ. ID NO. 19 (LRDKVVVGIVLWNVFNRMPIALLIIK; also: His tag)	about 85%
AIFR588L;K592L: His-tagged mouse AIF double leucine mutant, SEQ. ID NO. 20 (LRDKVVVGIVLWNVFNRMPIALKIIL; also: His tag)	about 85%

Second part, the molecule after the results:

reduced PAR binding	Molecule
40%	AIF-Sm: full length mouse AIF, arginine at 588 substituted with alanine (protein, UniProt Q9Z0X1 1-612, looked up, variant R588A, full-length, full length mouse AIF, arginine at 588 substituted with alanine) MFRCGGLAGAFKQKLVPLVRTVYVQRPKQRNRLPGNLFQQWRVPLELQMARQMASSGSSGGKMDNSVLVLIVGLSTIGAGAYAYKTIKEDQKRYNERVMGLGLSPEEKQRRAIASATEGGSVPQIRAPSHVPFLLIGGGTAAFAAARSIRARDPGARVLIVSEDPELPYMRPPLSKELWFSDDPNVTKTLQFRQWNGKERSIYFQPPSFYVSAQDLPNIENGGVAVLTGKKVVHLDVRGNMVKLNDGSQITFEKCLIATGGTPRSLSAIDRAGAEVKSRTTLFRKIGDFRALEKISREVKSITVIGGGFLGSELACALGRKSQASGIEVIQLFPEKGNMGKILPQYLSNWTMEKVKREGVKVMPNAIVQSVGVSGGRLLIKLKDGRKVETDHIVTAVGLEPNVELAKTGGLEIDSDFGGFRVNAELQARSNIWVAGDAACFYDIKLGRRRVEHHDHAVVSGRLAGENMTGAAKPYWHQSMFWSDLGPDVGYEAIGLVDSSLPTVGVFAKATAQDNPKSATEQSGTGIRSESETESEASEITIPPSAPAVPQVPVEGEDYGKGVIFYLRDKVVVGIVLWNVFNRMPIAAKIIKDGEQHEDLNEVAKLFNIHED
80%	AIF-Dm: full length mouse AIF, arginine 588 and lysine 589 substituted with alanines (protein, UniProt Q9Z0X1 1-612, looked up, variant R588A K589A, full-length, full length mouse AIF, arginine 588 and lysine 589 substituted with alanines) MFRCGGLAGAFKQKLVPLVRTVYVQRPKQRNRLPGNLFQQWRVPLELQMARQMASSGSSGGKMDNSVLVLIVGLSTIGAGAYAYKTIKEDQKRYNERVMGLGLSPEEKQRRAIASATEGGSVPQIRAPSHVPFLLIGGGTAAFAAARSIRARDPGARVLIVSEDPELPYMRPPLSKELWFSDDPNVTKTLQFRQWNGKERSIYFQPPSFYVSAQDLPNIENGGVAVLTGKKVVHLDVRGNMVKLNDGSQITFEKCLIATGGTPRSLSAIDRAGAEVKSRTTLFRKIGDFRALEKISREVKSITVIGGGFLGSELACALGRKSQASGIEVIQLFPEKGNMGKILPQYLSNWTMEKVKREGVKVMPNAIVQSVGVSGGRLLIKLKDGRKVETDHIVTAVGLEPNVELAKTGGLEIDSDFGGFRVNAELQARSNIWVAGDAACFYDIKLGRRRVEHHDHAVVSGRLAGENMTGAAKPYWHQSMFWSDLGPDVGYEAIGLVDSSLPTVGVFAKATAQDNPKSATEQSGTGIRSESETESEASEITIPPSAPAVPQVPVEGEDYGKGVIFYLRDKVVVGIVLWNVFNRMPIAAAIIKDGEQHEDLNEVAKLFNIHED

— patent publication US20120122765A1, “COMPOUNDS AND RELATED METHODS FOR MANIPULATING PARP-1-DEPENDENT CELL DEATH” (priority 2010, published 2012)
